# Key:
# [1] = system: rat striatal synaptosomes; assay: 3H-dopamine release from rat striatal synaptosomes; format: cell-based; settings: fraction of release relative to total releasable dopamine
# Experimental: Brains from Sprague-Dawley or Wistar rats (200-400 g) were dissected. Tissue from three rat brains yields enough material for one 96-well plate. Striata were dissected on an ice-chilled platform and placed in 12 ml ice-cold dissection buffer. The tissue was hereafter homogenized for 5-10 sec using a motor driven Teflon pestle in a glass homogenizing vessel. The homogenate was centrifuged at 1000×g for 10 min at 4° C. The resulting supernatant was then re-centrifuged at 12,000×g for 20 min at 4° C. The final crude P2 synatosomal fraction was re-suspended in oxygenated (equilibrated with an atmosphere of 96% O2: 4% CO2 for at least 30 min) Krebs bicarbonate buffer (0.5 ml/100 mg wet tissue weight) containing 100 nM ^3H-dopamine (3.9 μl/100 mg wet tissue weight) and incubated at 37° C. for 10 min. Pargyline was added to the buffer to prevent degradation of ^3H-dopamine.
# The ^3H-dopamine loaded synaptosomes were centrifuged at 1000×g for 5 min at room temperature. […]
# Following the collection of stimulated release, 75 μl Solvable™ was added to each well and allowed to incubate for at least 45 min to extract remaining ^3H-DA from the sample. […] Radioactivity from each collection was determined by conventional liquid scintillation counting using a Packard Topcount™ counter. […]
# α6/α3β2β3^V273S receptor = molecular target: T1, α6/α3β2β3^V273S receptor (Homo sapiens, UniProt Q15825, V273S); assay: Oocyte two-electrode voltage-clamp electrophysiology, α6/α3β2β3V273S; format: cell-based; settings: Xenopus laevis oocytes, fitted maximal current relative to acetylcholine; read-out: maximal efficacy compared to ACh
# T1 construct: fused on or other part: P32297 (Neuronal acetylcholine receptor subunit alpha-3) P17787 (Neuronal acetylcholine receptor subunit beta-2)
# Experimental: Two-electrode voltage-clamp electrophysiology recordings were done in Xenopus laevis oocytes injected with approximately 25 ng cRNA. After injection, oocytes were incubated at 17° C. for 2-3 days. During measurements, an oocyte was placed in a custom designed recording chamber where compound solutions are added directly to the oocyte via a glass capillary. Compound solutions were prepared on the day of measurement and applied to oocytes with a flowrate of 2.0 ml/min. All datasets were baseline subtracted and responses to individual applications were read as peak current amplitudes. Concentration response relationships describing compound effect at a fixed acetylcholine concentration were fitted to a monophasic Hill-equation. Potency (EC50) and efficacy values (fitted maximal current relative to maximal current of acetylcholine).
# nicotinic receptors = assay: 3H-epibatidin displacement studies in rats; format: in vivo
# [2] = system: nicotinic receptors in the brain; format: in vivo, mice
# Experimental: Accumulation of ^3H-epibatidine occurs preferentially in brain regions containing nicotinic receptors. […] The specific binding in thalamus reaches a maximum 30 min after an i.v. injection of ^3H-epibatidine and this maximum is maintained for another 30 min.
# All test substances were administered as solutions or suspensions prepared in vehicle (e.g. saline, water, 5% glucose, 0.5% CMC, 0.5% HPMC or 10% HPβCD) and tested in serial 1:3 dilutions. Doses were adjusted for salt.
# Groups of three female NMRI mice (25 g) were administered vehicle or test substance p.o. at a volume of 0.75 ml. Mice were injected i.v. via the tail vein with 1 μCi of ^3H-epibatidine in 0.2 ml saline 45 min before decapitation. At the time of decapitation, the thalamus and a piece of cerebellum were rapidly dissected on ice. Tissues were weighed and dissolved for 36 h with 1 ml 2% sodium-laurylsulfate. The solubilized tissue was then added 2 ml of scintillation cocktail, and the amount of radioactivity in the tissue was counted by conventional liquid scintillation counting. Groups of vehicle-treated mice served as controls. Non-specific binding was defined as the amount of binding in cerebellum in vehicle treated mice.
# Specific binding was determined as the amount of binding (dpm/5 mg tissue) in thalamus minus the amount of binding in cerebellum (dpm/5 mg tissue) in vehicle mice. […]
# T1 sequence (Q15825 26-239 limits assumed): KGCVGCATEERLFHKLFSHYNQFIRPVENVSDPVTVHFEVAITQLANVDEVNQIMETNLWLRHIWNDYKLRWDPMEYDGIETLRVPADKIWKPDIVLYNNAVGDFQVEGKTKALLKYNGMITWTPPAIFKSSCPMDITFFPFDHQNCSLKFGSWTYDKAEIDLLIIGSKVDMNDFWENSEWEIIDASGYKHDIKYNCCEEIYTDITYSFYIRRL
# T1 sequence (P17787 26-502, further chain): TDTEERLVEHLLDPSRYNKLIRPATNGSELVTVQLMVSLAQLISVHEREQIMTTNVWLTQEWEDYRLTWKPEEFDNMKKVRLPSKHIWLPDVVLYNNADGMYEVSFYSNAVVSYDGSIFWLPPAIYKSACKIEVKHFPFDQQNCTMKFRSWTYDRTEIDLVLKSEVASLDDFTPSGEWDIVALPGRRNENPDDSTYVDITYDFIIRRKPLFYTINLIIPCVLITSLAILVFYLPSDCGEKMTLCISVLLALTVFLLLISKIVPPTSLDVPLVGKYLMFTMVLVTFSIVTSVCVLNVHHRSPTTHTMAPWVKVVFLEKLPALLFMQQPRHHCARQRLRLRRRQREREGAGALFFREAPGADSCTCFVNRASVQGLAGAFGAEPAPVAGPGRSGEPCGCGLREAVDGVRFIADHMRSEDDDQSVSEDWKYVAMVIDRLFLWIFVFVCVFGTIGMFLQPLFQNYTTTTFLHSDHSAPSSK
# T1 sequence (Q05901 22-458 V273S, further chain): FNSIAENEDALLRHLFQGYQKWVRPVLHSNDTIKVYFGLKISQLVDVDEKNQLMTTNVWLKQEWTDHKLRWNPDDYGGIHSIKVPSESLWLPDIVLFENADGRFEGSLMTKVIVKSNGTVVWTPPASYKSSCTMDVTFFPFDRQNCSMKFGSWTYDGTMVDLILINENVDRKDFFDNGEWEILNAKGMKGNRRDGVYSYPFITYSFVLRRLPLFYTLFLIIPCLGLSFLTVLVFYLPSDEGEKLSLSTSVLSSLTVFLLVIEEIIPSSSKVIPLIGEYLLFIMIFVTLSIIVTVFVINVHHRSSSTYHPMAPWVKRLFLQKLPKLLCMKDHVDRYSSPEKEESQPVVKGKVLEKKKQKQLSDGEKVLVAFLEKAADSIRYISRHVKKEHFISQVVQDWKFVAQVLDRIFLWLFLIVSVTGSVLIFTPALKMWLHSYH
smiles,measurement,setting,value
"CN1C2CCCC1CN(c1cccnc1)C2 [9-methyl-3-pyridin-3-yl-3,9-diaza-bicyclo[3.3.1]nonane]",3H-dopamine release,[1],concentration-dependently stimulates
same,Emax,α6/α3β2β3^V273S receptor,27%
same,dose giving half maximal displacement of specific binding of 3H-epibatidin,nicotinic receptors,0.15 mg/kg
same,"ED50, inhibition of specific binding of 3H-epibatidine","[2]; mice pre-dosed for 45 min, p.o.",1.3 mg/kg
same,maintained brain exposure (duration),"[2]; mice, 2 mg/kg p.o., time course up to 6 hours",at least 6 hours

# Reference: patent US20180311238A1, “Selective Agonist Of a6 Containing nAChRs” (Saniona A/S, priority 2017, published 2018)
